Reference: PubChem BioAssay (NCI)
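Five compound concentrations were applied to cells in 96-well plates for 48 hours; endpoints were derived by simple linear interpolation of the resulting dose-response curve. Here, GI50 denotes the concentration required for 50% inhibition of growth. TGI is the concentration that stops growth completely.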

Tests used:
Test in all cases: DTP human tumour cell line panel, 48 h
ACHN renal = tested on: ACHN renal
CCRF-CEM leukemia = tested on: CCRF-CEM leukemia
EKVX NSCLC = tested on: EKVX NSCLC
HCC-2998 colon = tested on: HCC-2998 colon
HCT-15 colon = tested on: HCT-15 colon
MALME-3M melanoma = tested on: MALME-3M melanoma
OVCAR-4 ovarian = tested on: OVCAR-4 ovarian
SF-539 CNS = tested on: SF-539 CNS
SW-620 colon = tested on: SW-620 colon
K-562 leukemia = tested on: K-562 leukemia

| Compound | TGI (ACHN renal) [µM] | TGI (CCRF-CEM leukemia) [µM] | TGI (EKVX NSCLC) [µM] | TGI (HCC-2998 colon) [µM] | TGI (HCT-15 colon) [µM] | TGI (MALME-3M melanoma) [µM] | TGI (OVCAR-4 ovarian) [µM] | TGI (SF-539 CNS) [µM] | TGI (SW-620 colon) [µM] | TGI (K-562 leukemia) [µM] | GI50 (ACHN renal) [µM] | GI50 (CCRF-CEM leukemia) [µM] | GI50 (EKVX NSCLC) [µM] | GI50 (HCT-15 colon) [µM] | GI50 (K-562 leukemia) [µM] | GI50 (MALME-3M melanoma) [µM] | GI50 (OVCAR-4 ovarian) [µM] | GI50 (SW-620 colon) [µM] | GI50 (HCC-2998 colon) [µM] | GI50 (SF-539 CNS) [µM] |
| --- | --- | --- | --- | --- | --- | --- | --- | --- | --- | --- | --- | --- | --- | --- | --- | --- | --- | --- | --- | --- |
| N#CCC(=O)Nc1cccc(C(F)(F)F)c1 | > 100 | > 100 | > 100 | > 100 | > 100 | > 100 | > 100 | > 100 | > 100 |  |  |  |  |  |  |  |  |  |  |  |
| Cc1ncc(CN=Cc2ccc(Cl)cc2)c(N)n1 | > 100 | > 100 | > 100 |  | > 100 | > 100 | > 100 | > 100 | > 100 | > 100 |  |  |  |  |  |  |  |  |  |  |
| COc1ccc2cc(C(=O)/C=C/c3cc(OC)c(OC)c(OC)c3)ccc2c1 | 18.2 | > 50 | 29.5 |  | > 50 | 25.8 | > 50 |  | 6.91 | > 50 | 7.17 | > 50 | 4.05 | 1.77 | 2.49 | 11 | 2.82 | 1.51 |  |  |
| COc1cc(CCc2ccc(OCCN(C)C)cc2)cc(OC)c1OC | > 100 | > 100 | > 100 |  | > 100 | > 100 | > 100 | > 100 | > 100 | > 100 |  |  |  |  |  |  |  |  |  |  |
| Cc1cc(-c2ncc(CC(=O)Nc3ccc(-c4cnccn4)cn3)cc2C)ccn1 | > 100 | > 100 |  | > 100 | > 100 | > 100 | > 100 | > 100 | > 100 | > 100 | 31.5 | 35.8 |  | 38.4 | 22.2 | 21.2 | 6.11 | 98.7 | > 100 | 26.1 |
| COc1cc2c3c(n(C)c(=O)c2cc1OC)-c1cc2c(cc1/C3=C\CCCCCN)OCO2 | 9.28 | 0.0641 | 52.2 | 39.5 | 12.7 | 37.8 | > 94.1 | 14.8 |  |  | 0.289 | 0.0121 | 16.4 | 1.58 |  | 8.38 | 17.4 |  | 1.28 | 1.96 |
| O=C1CC(O)C=C1Nc1ccc(Cl)cc1 (configuration not stated) | > 100 | > 100 | 60.8 | 44.5 |  | > 100 | > 100 | > 100 | > 100 | > 100 |  |  |  |  |  |  |  |  |  |  |
| CN(C)c1cccc2c(S(=O)(=O)N[C@H]3CC[C@H]4[C@@H]5CCc6cc(O)ccc6[C@H]5CC[C@]34C)cccc12 | 14.1 | > 100 |  | 14.6 | 8.38 | 5.61 | 13.8 | 4.14 | 14 | > 100 | 3.1 | 3.25 |  | 0.951 | 1.71 | 1.9 | 2.8 | 2.72 | 3.17 | 1.88 |
| COC(=O)C1CC2(CC3=C1CCCC3)OCCO2 (configuration not stated) |  | > 100 | > 100 | > 100 | > 100 | > 100 | > 100 | > 100 | > 100 | > 100 |  |  |  |  |  |  |  |  |  |  |
| COc1ccc(Cl)cc1Nc1nc(C(F)(F)F)ccc1C(=O)N/N=C/c1c(Cl)cccc1Cl | > 100 | 6.17 |  | > 100 | > 100 | 54.7 | > 100 | > 100 |  | 32.5 | 8.01 | 1.04 |  | 3.26 | 3.34 | 3.46 | 5.16 |  | 5.37 | 17.9 |
| COc1ccc(N=C2CSc3nnc(-c4cc(F)c(Cl)cc4Cl)n3N2)cc1 | 11.5 | > 100 | 41.7 |  | 17.2 | 3.77 | 7.04 | 2.63 | 13.1 | 18.1 | 2.33 | 0.674 | 4.84 | 1.03 | 0.515 | 0.529 | 1.82 | 0.553 |  | 1.05 |
| CC(=O)n1c(COS(C)(=O)=O)nc2ccccc21 | > 100 |  | > 100 | > 100 | > 100 | > 100 | > 100 | > 100 | > 100 |  |  |  |  |  |  |  |  |  |  |  |
| CNC(P(=O)([O-])[O-])P(=O)([O-])[O-].N.N.[Pt+2] |  |  | > 100 | > 100 | > 100 | > 100 | > 100 | > 100 | > 100 |  |  |  | > 100 | > 100 |  | > 100 | > 100 | > 100 | > 100 | > 100 |
| Nc1nc(SCc2ccccn2)c2ncn(C3CCCC3)c2n1 | > 100 | > 100 | > 100 | > 100 | > 100 | > 100 | > 100 |  | > 100 | > 100 |  |  |  |  |  |  |  |  |  |  |
| CC1=C(C(=O)Nc2c(C)cccc2C)C(c2ccc3c(c2)OCO3)C(C(=O)Nc2c(C)cccc2C)=C(C)N1 | 35.2 | 41.9 | 53.3 | 32.3 |  | 45.7 | 77.3 | 37.7 | 36.5 | 73 |  |  |  |  |  |  |  |  |  |  |
| Nc1ccn(CCOC(=O)c2ccccc2)c(=O)n1 | > 100 | > 100 | > 100 |  | > 100 | > 100 | > 100 | > 100 | > 100 | > 100 |  |  |  |  |  |  |  |  |  |  |
| COc1cc(C2CC(c3ccc(C)cc3)=NN2C=O)ccc1Oc1ccnc2cc(Cl)ccc12 (configuration not stated) | > 50 | > 50 | > 50 | > 50 | > 50 | > 50 |  | 27 | > 50 | > 50 | 4.39 | > 50 | 7.75 | > 50 | > 50 | > 50 |  | > 50 | > 50 | 3.85 |
| Cc1ccc(OCC(=O)N2N=C(c3ccccc3)CC2(O)c2ccccc2)cc1 (configuration not stated) | > 100 |  |  | > 100 | > 100 | > 100 | 71.6 | > 100 | > 100 | > 100 |  |  |  |  |  |  |  |  |  |  |
